Assay type in all cases: cell-based, rat
For experiment [1], the system named is fibrin-induced microglia activation. Kind of experiment: Image-based assay of fibrin-induced microglia activation (HTS and dose response). To be noted: for inhibition at 10 µM: read-out: Fibrin % inhibition.
In experiment [2] the test system is LPS-induced microglia activation. Kind of experiment: Image-based assay of LPS-induced microglia activation (HTS and dose response). Conditions: for inhibition at 10 µM: read-out: LPS % inhibition.
Experiment [3] has as its system fibrin- and LPS-induced microglia activation. Briefly: cells. Conditions: for inhibition at 10 µM: Rattus norvegicus, Microglia.
The mark [4] stands for this setting: Rattus norvegicus, Microglia, 48 h.
The mark [5] stands for this setting: Rattus norvegicus, Microglia, primary microglia HTS, fibrin stimulation, increased cell size (>800 μm^2) as marker of activation.
[6] abbreviates: Rattus norvegicus, Microglia, 48 h, primary microglia HTS, LPS stimulation, increased cell size (>800 μm^2) as marker of activation.
[7] abbreviates: quadrant by fibrin and LPS inhibition in HTS of 1907 compounds.
The mark [8] stands for this setting: primary microglia HTS, fibrin stimulation, activation = cell size >800 μm2.
[9] abbreviates: primary microglia HTS, LPS stimulation, activation = cell size >800 μm2.
The mark [10] stands for this setting: Rattus norvegicus, Microglia, primary microglia HTS, fibrin stimulation, activation = cell size >800 μm2.
Where [11] appears, read: Rattus norvegicus, Microglia, 48 h, primary microglia HTS, LPS stimulation, activation = cell size >800 μm2.

pIC50: −log10 of the molar value. Structures can show the parent of a compound that is named as a salt. Where two headings read alike, the source gives them in different places.

What is called pIC50 is −log10 of the IC50, conventionally taken in molar units. As for `C[C@@H]1C[C@H]2[C@@H]3C[C@H](F)C4=CC(=O)C=C[C@]4(C)[C@@]3(F)[C@@H](O)C[C@]2(C)[C@@]1(O)C(=O)CO` [Flumethasone, reference compound], the pIC50 was > 9.00 in experiment [1] (Rattus norvegicus, Microglia, 48 h, read-out: Fibrin IC50) and > 9.00 in experiment [2] (Rattus norvegicus, Microglia, 48 h, read-out: LPS IC50). Also, the inhibition at 10 µM in experiment [1] (Rattus norvegicus, Microglia) was 109%; in experiment [2] (setting [4]), 101%; in experiment [3] (read-out: Cherry-picked Hit (Suppl. Table 7)) it was > 50%; in experiment [3] (read-out: Hit), > 50%. Further, the IC50 in experiment [1] (Rattus norvegicus, Microglia, read-out: Fibrin IC50 (uM)) was < 0.001 µM; in experiment [1] (Rattus norvegicus, Microglia, read-out: Fibrin IC50 (uM) (Suppl. Table 7)), < 0.001 µM; in experiment [2] (Rattus norvegicus, Microglia, read-out: LPS IC50 (uM)), < 0.001 µM; in experiment [2] (Rattus norvegicus, Microglia, read-out: LPS IC50 (uM) (Suppl. Table 7)) it was < 0.001 µM. For the same compound, the “Quadrant (FIG. 5b)” value in experiment [3] was “Q2”.

For `CC(=O)OCC(=O)[C@@]12OC(C)(C)O[C@@H]1C[C@H]1[C@@H]3C[C@H](F)C4=CC(=O)C=C[C@]4(C)[C@@]3(F)[C@@H](O)C[C@@]12C` [Fluocinonide, reference compound], the inhibition at 10 µM in experiment [1] (Rattus norvegicus, Microglia) is 112%; in experiment [2] (setting [4]), 106%. Moreover, the IC50 in experiment [1] (Rattus norvegicus, Microglia, read-out: fib_IC50 (uM)) turned out to be 0.002 µM; in experiment [2] (Rattus norvegicus, Microglia, read-out: LPS_IC50 (uM)), 0.002 µM. Besides, the Activity entry in experiment [3] was “fib/LPS”. Also, the “Quadrant (FIG. 5b)” value in experiment [3] was “Q2”.

With `CNCCC(Oc1ccc(C(F)(F)F)cc1)c1ccccc1.Cl` (centres unmarked) [Fluoxetine Hydrochloride, Fluoxetine], the Fibrin % inhibition in experiment [1] came to 46%. The LPS % inhibition in experiment [2] was 65%. In addition, the “Quadrant (FIG. 5b)” value in experiment [3] is “Q1”.

On to `CC(C)n1c(/C=C/C(O)CC(O)CC(=O)O)c(-c2ccc(F)cc2)c2ccccc21` (centres unmarked) [Fluvastatin], for which the values for the inhibition at 10 µM in experiment [1] (setting [5]) and in experiment [2] (setting [6]) were 110% and 101%, respectively. The “Quadrant (FIG. 5b)” value in experiment [3] (setting [7]) was “Q2”.

In the case of `O=C1OCCN1/N=C/c1ccc([N+](=O)[O-])o1` [Furazolidone], the inhibition at 10 µM in experiment [1] (Rattus norvegicus, Microglia) came to 3%; in experiment [2] (setting [4]), 8%. In addition, in experiment [3], the “Quadrant (FIG. 5b)” value is “Q4”.

With `NS(=O)(=O)c1cc(C(=O)O)c(NCc2ccco2)cc1Cl` [Furosemide], the inhibition at 10 µM in experiment [1] (Rattus norvegicus, Microglia) is -5%; in experiment [2] (setting [4]), 25%. Moreover, the “Quadrant (FIG. 5b)” value in experiment [3] was “Q4”.

Consider `Cc1cnc(C(=O)NCCc2ccc(S(=O)(=O)NC(=O)NC3CCCCC3)cc2)cn1` [Glipizide], for which the inhibition at 10 µM in experiment [1] (Rattus norvegicus, Microglia) amounted to 12%; in experiment [2] (setting [4]), 18%. For the same compound, the “Quadrant (FIG. 5b)” value in experiment [3] is given as “Q4”.

As to `C[N+]1(C)CCC(OC(=O)C(O)(c2ccccc2)C2CCCC2)C1` (centres unmarked) [Glycopyrrolate], the inhibition at 10 µM in experiment [1] (Rattus norvegicus, Microglia) is -33%; in experiment [2] (setting [4]), 3%. Also, the “Quadrant (FIG. 5b)” value in experiment [3] is recorded as “Q4”.

`N=C(N)NCCN1CCCCCCC1` [Guanethidine]: the inhibition at 10 µM is -44% in experiment [1] (Rattus norvegicus, Microglia) and 12% in experiment [2] (setting [4]). Moreover, in experiment [3], the “Quadrant (FIG. 5b)” value is given as “Q4”.

Regarding `COc1ccc2c(c1OC)C(=O)O[C@@H]2[C@H]1c2cc3c(cc2CCN1C)OCO3` [Hydrastine (1r,9s)], in experiment [1] (setting [8]), the Fibrin % inhibition is listed as −27%. In experiment [2] (setting [9]), this compound displayed an LPS % inhibition of 10%. The “Quadrant (FIG. 5b)” value in experiment [3] (setting [7]) is “Q4”.

In the case of `CC(C)[N+]1(C)[C@@H]2CC[C@H]1CC(OC(=O)C(CO)c1ccccc1)C2.[Br-]` (some centres unmarked) [Ipratropium Bromide], the Fibrin % inhibition in experiment [1] is recorded as 6%. Besides, the LPS % inhibition in experiment [2] was found to be 8%. The “Quadrant (FIG. 5b)” value in experiment [3] was “Q4”.

Turning to `O.OC[C@H]1O[C@@H](O[C@H]2[C@H](O)[C@@H](O)C(O)O[C@@H]2CO)[C@H](O)[C@@H](O)[C@H]1O` (some centres unmarked) [Lactose Monohydrate], the inhibition at 10 µM in experiment [1] (setting [10]) is -22%; in experiment [2] (setting [11]) it was 9%. Also, the “Quadrant (FIG. 5b)” value in experiment [3] (setting [7]) is “Q4”.

On to `O=C(O)COCCN1CCN([C@H](c2ccccc2)c2ccc(Cl)cc2)CC1` [Levocetirizine Dihydrochloride], for which the inhibition at 10 µM was -44% in experiment [1] (Rattus norvegicus, Microglia) and -2% in experiment [2] (setting [4]). In addition, in experiment [3], the “Quadrant (FIG. 5b)” value is reported as “Q4”.

Regarding `C#C[C@]1(O)CC[C@H]2[C@@H]3CCC4=CC(=O)CC[C@@H]4[C@H]3CC[C@@]21CC` [Levonorgestrel], the inhibition at 10 µM in experiment [1] (setting [10]) was 16%; in experiment [2] (setting [11]), -13%. Besides, in experiment [3] (setting [7]), the “Quadrant (FIG. 5b)” value is given as “Q4”.

Regarding `CCN(CC)CC(=O)Nc1c(C)cccc1C` [Lidocaine], the inhibition at 10 µM in experiment [1] (Rattus norvegicus, Microglia) was -23%; in experiment [2] (setting [4]), 8%. Also, the “Quadrant (FIG. 5b)” value in experiment [3] is recorded as “Q4”.

For `O=C(O)CCCCC1CCSS1` (centres unmarked) [Lipoic Acid], in experiment [1] (setting [8]), the Fibrin % inhibition is −38%. Also, the LPS % inhibition in experiment [2] (setting [9]) worked out at 39%. Also, in experiment [3] (setting [7]), the “Quadrant (FIG. 5b)” value is on record as “Q4”.

Consider `NCCCC[C@H](N[C@@H](CCc1ccccc1)C(=O)O)C(=O)N1CCC[C@H]1C(=O)O` [Lisinopril], for which the inhibition at 10 µM was determined as 1% in experiment [1] (Rattus norvegicus, Microglia) and 3% in experiment [2] (setting [4]). Also, the “Quadrant (FIG. 5b)” value in experiment [3] is recorded as “Q4”.

For `CCn1cc(C(=O)O)c(=O)c2cc(F)c(N3CCNC(C)C3)c(F)c21` (centres unmarked) [Lomefloxacin], the inhibition at 10 µM in experiment [1] (Rattus norvegicus, Microglia) came out at 7%; in experiment [2] (setting [4]) it was 15%. Further, in experiment [3], the “Quadrant (FIG. 5b)” value is given as “Q4”.

Regarding `C#CC(C)(O)CC` (centres unmarked) [Meparfylon], the Fibrin % inhibition in experiment [1] (primary microglia HTS, fibrin stimulation, increased cell size (>800 μm^2) as marker of activation) is on record as −49%. Further, the LPS % inhibition in experiment [2] (primary microglia HTS, LPS stimulation, increased cell size (>800 μm^2) as marker of activation) came out at 3%. The “Quadrant (FIG. 5b)” value in experiment [3] (setting [7]) was “Q4”.

For the compound `CN1CCN2c3ccccc3Cc3ccccc3C2C1` (centres unmarked) [Mianserin], the inhibition at 10 µM in experiment [1] (Rattus norvegicus, Microglia) is -18%; in experiment [2] (setting [4]) it was 17%. For the same compound, the “Quadrant (FIG. 5b)” value in experiment [3] was “Q4”.

On to `CN(C)c1ccc(O)c2c1C[C@H]1C[C@H]3[C@H](N(C)C)C(O)=C(C(N)=O)C(=O)[C@@]3(O)C(O)=C1C2=O` [Minocycline], for which the inhibition at 10 µM in experiment [1] (setting [5]) is -6%; in experiment [2] (setting [6]) it was 16%. The “Quadrant (FIG. 5b)” value in experiment [3] (setting [7]) was “Q4”.

`Nc1cc(N2CCCCC2)nc(N)[n+]1[O-]` [Minoxidil]: the inhibition at 10 µM in experiment [1] (setting [5]) was -5%; in experiment [2] (setting [6]), 9%. Further, the “Quadrant (FIG. 5b)” value in experiment [3] (setting [7]) is given as “Q4”.

In the case of `COc1ccc2cc([C@H](C)C(=O)O)ccc2c1` [Naproxen], the inhibition at 10 µM in experiment [1] (Rattus norvegicus, Microglia) was -25%; in experiment [2] (setting [4]), 15%. For the same compound, the “Quadrant (FIG. 5b)” value in experiment [3] is given as “Q4”.

With `O=C(O)c1cccnc1` [Niacin], the inhibition at 10 µM was determined as 8% in experiment [1] (Rattus norvegicus, Microglia) and 13% in experiment [2] (setting [4]). Besides, the “Quadrant (FIG. 5b)” value in experiment [3] is on record as “Q4”.

On to `COC(=O)C1=C(C)NC(C)=C(C(=O)OC)C1c1ccccc1[N+](=O)[O-]` [Nifedipine], for which the inhibition at 10 µM in experiment [1] (Rattus norvegicus, Microglia) was -36%; in experiment [2] (setting [4]) it was 2%. Further, in experiment [3], the “Quadrant (FIG. 5b)” value was “Q4”.

Turning to `CS(=O)(=O)Nc1ccc([N+](=O)[O-])cc1Oc1ccccc1` [Nimesulide], the inhibition at 10 µM in experiment [1] (Rattus norvegicus, Microglia) is -19%; in experiment [2] (setting [4]) it was 13%. The “Quadrant (FIG. 5b)” value in experiment [3] is given as “Q4”.

In the case of `C#C[C@]1(O)CC[C@H]2[C@@H]3CCC4=C(CCC(=O)C4)[C@H]3CC[C@@]21C` [Norethynodrel], the inhibition at 10 µM in experiment [1] (Rattus norvegicus, Microglia) is 1%; in experiment [2] (setting [4]) it was 10%. Also, the “Quadrant (FIG. 5b)” value in experiment [3] is reported as “Q4”.

On to `C#CC1(O)CC[C@H]2[C@@H]3CCC4=CC(=O)CC[C@@H]4[C@H]3CC[C@@]21CC` (some centres unmarked) [Norgestrel], for which the inhibition at 10 µM in experiment [1] (setting [5]) came out at 4%; in experiment [2] (setting [6]), 22%. Further, the “Quadrant (FIG. 5b)” value in experiment [3] (setting [7]) is recorded as “Q4”.

These data come from patent US20210330611A1, “THERAPY FOR NEUROLOGICAL DISEASES/DISORDERS” (priority 2020, published 2021).
